Literature values as cited in US8193226B2, “Candesartan cilexetil” (Zhejiang Huahai Pharmaceutical Co., Ltd., priority 2007, dated 2012).
Read-outs that look alike come from different tables or passages of the source.

Columns and labels:
[1] = not given; remark: listed apart in the source
[2] = not given; remark: listed apart in the source

In the case of `CCOc1nc2cccc(C(=O)OC(C)OC(=O)OC3CCCCC3)c2n1Cc1ccc(-c2ccccc2-c2nn[nH]n2)cc1` (stereo not drawn) [candesartan cilexetil], the bioavailability (solution) is listed as 40%, the bioavailability (tablet) is listed as 15% and the “stability when processed into a tablet” value ([1]; in the presence of other pharmaceutically acceptable additives, or at granulation or tableting) is listed as “tends to decompose”. The “stability of the drug as such” value ([1]; isolated form, exposed to increased temperatures, humidity and light) was “stable”, the “solubility in alcoholic solvents” value ([2]; alcoholic solvents) was “readily soluble” and the solubility in water ([2]; water) was “practically insoluble”.
